From patent US20190127354A1, “2,4,6,7-TETRASUBSTITUTED QUINOLINE COMPOUNDS AS INHIBITORS OF DNA […]” (FUNDACIÓN PARA LA INVESTIGACIÓN MÉDICA APLICADA, priority 2015, published 2019)

Key:
human G9a enzyme = biological target: T1, human G9a enzyme (Homo sapiens, UniProt Q96KQ7); assay: G9a enzyme activity assay (TR-FRET); format: biochemical; conditions: 1 hour at room temperature
T1 construct: purchased BPS Biosciences 51001; host or cells: baculovirus infected Sf9 cells
T1 sequence (Q96KQ7 1-1210): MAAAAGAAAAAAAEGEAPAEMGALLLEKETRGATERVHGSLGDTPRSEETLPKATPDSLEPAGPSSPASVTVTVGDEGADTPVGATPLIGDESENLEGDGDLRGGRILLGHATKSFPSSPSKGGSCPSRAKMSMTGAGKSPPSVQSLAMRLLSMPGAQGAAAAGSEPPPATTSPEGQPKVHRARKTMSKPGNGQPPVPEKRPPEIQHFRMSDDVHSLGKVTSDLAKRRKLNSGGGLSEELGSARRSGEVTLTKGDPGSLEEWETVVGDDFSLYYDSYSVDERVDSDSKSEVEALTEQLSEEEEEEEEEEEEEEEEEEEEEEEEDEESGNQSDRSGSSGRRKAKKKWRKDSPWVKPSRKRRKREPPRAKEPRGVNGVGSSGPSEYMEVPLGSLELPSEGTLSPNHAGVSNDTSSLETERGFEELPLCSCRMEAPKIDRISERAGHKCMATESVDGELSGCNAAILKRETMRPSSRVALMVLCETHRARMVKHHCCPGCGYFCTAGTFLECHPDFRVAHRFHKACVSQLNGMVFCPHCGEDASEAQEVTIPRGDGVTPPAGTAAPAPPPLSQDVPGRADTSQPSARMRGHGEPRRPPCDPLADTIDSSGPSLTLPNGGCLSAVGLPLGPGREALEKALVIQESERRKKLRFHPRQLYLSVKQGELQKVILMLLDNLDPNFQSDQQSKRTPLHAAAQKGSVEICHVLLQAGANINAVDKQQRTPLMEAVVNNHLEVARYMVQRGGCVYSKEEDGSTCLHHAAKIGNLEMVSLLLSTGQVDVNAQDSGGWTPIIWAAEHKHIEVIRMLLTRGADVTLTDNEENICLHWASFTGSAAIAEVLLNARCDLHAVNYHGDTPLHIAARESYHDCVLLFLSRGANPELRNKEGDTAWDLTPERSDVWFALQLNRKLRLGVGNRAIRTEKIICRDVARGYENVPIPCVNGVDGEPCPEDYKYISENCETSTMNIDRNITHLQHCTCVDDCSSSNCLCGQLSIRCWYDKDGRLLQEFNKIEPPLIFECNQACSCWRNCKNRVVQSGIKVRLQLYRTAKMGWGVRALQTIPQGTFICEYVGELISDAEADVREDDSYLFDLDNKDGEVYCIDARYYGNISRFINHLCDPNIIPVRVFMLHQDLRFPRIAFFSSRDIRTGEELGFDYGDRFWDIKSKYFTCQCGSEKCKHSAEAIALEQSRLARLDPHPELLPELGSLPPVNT
Experimental: G9a Enzyme Activity Assay
The biochemical assay to measure G9a enzyme activity relies on time-resolved fluorescence energy transfer (TR-FRET) between europium cryptate (donor) and XL665 (acceptor). […] The human G9a enzyme expressed in a baculovirus infected Sf9 cell expression system was obtained from BPS Biosciences (Cat. #51001). Enzyme activity assay was carried out in a white 384-well plate in a final volume of 20 μl, as follow: • 4 μl of vehicle or studied compound 2.5× concentrated prepared in assay buffer (50 mM Tris-HCl, 10 mM NaCl, 4 mM DTT, 0.01% Tween-20 pH9). Final percentage of DMSO was 0.5%. • 2 μl of 1 nM G9a enzyme diluted in assay buffer. […] Final concentration 150 nM. • Then, add 5 μl of streptavidin XL665 beads. Final concentration of 16 μM. • Read the plate after 1 hour of incubation at room temperature.
(§1) For each well, fluorescence was measured at 620 nm and 665 nm. A ratio (665 nm/620 nm) was then calculated in order to minimize medium interferences. Positive control was obtained in the presence of the vehicle of the compounds. Negative control was obtained in the absence of G9a enzyme activity. Calculated IC50 values were determined using GraphPrism using 4-parameters inhibition curve.

human DNMT1 = biological target: T2, human DNMT1 (Homo sapiens, UniProt P26358); assay: DNMT1 enzyme activity assay (TR-FRET, EPIgeneous methyltransferase assay); format: biochemical; conditions: human DNMT1, 15 minutes at 37° C.
T2 construct: purchased Reaction Biology Corp. DMT-21-124
T2 sequence (P26358 whole entry): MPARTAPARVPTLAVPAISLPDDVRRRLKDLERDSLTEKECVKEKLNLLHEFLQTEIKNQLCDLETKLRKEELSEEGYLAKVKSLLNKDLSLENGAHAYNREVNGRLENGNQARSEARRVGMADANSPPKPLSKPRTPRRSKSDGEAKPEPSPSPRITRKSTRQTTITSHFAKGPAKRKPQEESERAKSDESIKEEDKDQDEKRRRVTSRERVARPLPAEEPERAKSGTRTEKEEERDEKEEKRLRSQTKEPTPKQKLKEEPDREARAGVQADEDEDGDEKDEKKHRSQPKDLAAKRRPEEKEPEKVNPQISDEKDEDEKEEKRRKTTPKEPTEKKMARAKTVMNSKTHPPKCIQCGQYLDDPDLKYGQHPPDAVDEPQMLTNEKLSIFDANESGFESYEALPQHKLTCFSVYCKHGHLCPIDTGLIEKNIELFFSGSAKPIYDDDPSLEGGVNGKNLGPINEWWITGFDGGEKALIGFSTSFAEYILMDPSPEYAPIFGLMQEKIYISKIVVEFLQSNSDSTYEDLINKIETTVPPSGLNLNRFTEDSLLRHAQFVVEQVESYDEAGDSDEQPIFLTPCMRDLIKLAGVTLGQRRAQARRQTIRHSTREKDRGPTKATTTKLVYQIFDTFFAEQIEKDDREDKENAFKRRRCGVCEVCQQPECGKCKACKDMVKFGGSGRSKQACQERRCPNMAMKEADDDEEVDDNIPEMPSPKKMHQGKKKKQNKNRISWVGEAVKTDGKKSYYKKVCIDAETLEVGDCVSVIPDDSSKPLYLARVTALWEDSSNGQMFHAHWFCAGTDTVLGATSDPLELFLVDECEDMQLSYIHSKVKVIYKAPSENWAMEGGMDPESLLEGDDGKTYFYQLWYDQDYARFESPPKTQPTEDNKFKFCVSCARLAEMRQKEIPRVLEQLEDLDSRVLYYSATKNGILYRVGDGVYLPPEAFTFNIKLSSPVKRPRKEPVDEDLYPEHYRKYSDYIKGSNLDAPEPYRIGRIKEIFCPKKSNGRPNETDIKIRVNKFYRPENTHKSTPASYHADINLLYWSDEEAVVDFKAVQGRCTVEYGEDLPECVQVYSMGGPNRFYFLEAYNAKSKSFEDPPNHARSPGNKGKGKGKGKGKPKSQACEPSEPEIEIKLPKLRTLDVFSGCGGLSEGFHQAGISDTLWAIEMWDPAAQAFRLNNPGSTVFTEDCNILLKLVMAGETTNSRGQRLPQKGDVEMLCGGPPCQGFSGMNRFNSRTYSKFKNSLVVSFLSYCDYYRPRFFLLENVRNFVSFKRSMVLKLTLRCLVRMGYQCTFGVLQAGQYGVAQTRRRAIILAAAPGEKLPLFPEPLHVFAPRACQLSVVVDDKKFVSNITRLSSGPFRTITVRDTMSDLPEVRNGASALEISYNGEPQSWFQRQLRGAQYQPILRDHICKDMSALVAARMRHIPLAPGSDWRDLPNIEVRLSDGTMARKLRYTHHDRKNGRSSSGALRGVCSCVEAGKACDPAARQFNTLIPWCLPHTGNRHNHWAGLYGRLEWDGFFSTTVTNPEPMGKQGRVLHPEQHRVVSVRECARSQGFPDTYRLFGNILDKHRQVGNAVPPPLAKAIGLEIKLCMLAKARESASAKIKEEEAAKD
Experimental: DNMT1 Enzyme Activity Assay
The biochemical assay to measure DNMT1 enzyme activity relies on time-resolved fluorescence energy transfer (TR-FRET) between lumi4-Tb (donor) and d2 (acceptor) using the EPIgeneous methyltransferase assay (CisBio Cat#62SAHPEB). […] TR-FRET signal is inversely proportional to the concentration of SAH, product of DNMT1 enzyme activity, in the sample. The human DNMT1 was obtained from Reaction Biology Corp. (Cat# DMT-21-124).
Enzyme activity assay was carried out in a white 384-well plate in a final volume of 20 μl, as follow: • 4 μl of vehicle or studied compound 2.5× concentrated prepared in assay buffer (50 mM Tris-HCl, 1 mM EDTA, 1 mM DTT, 0.1% Triton X-100, 5% glycerol pH 7.5). Final percentage of DMSO was 0.5%. • 2 μl of 1 nM DNMT1 enzyme diluted in assay buffer.
as §1, with “compounds.” for “compounds. Negative control was obtained in the absence of G9a enzyme activity.”

Row | SMILES | IC50 (human G9a enzyme) | IC50 (human DNMT1)
1 | COc1cc2c(C=C3CCN(C)CC3)cc(-c3ccc(C)o3)nc2cc1OCCCN1CCCC1 [Compound 5-01, 6-methoxy-2-(5-methyl-2-furyl)-4-[(1-methyl-4-piperidylidene)methyl]-7-(3-pyrrolidin-1-ylpropoxy)quinoline] | > 10000 nM | 1000 to 10000 nM
2 | CNC1CCN(c2cc(-c3ccc(C)[nH]3)nc3cc(OCCCN4CCCC4)c(OC)cc23)CC1 [Compound 2-03] | 100 to 500 nM | 500 to 1000 nM
3 | CNCC1CCN(c2cc(-c3ccccc3)nc3cc(OCCCN4CCCC4)c(OC)cc23)CC1 [Compound 2-09] | 100 to 500 nM | 1000 to 10000 nM
4 | COc1cc2c(N(C)CC3CCN(C)CC3)cc(-c3ccccc3)nc2cc1OCCCN1CCCC1 [Compound 1-22] | 1000 to 10000 nM | 500 to 1000 nM
5 | COc1cc2c(N3CCC(CO)CC3)cc(-c3ccc(C)o3)nc2cc1OCCCN1CCCC1 [Compound 2-02] | 1000 to 10000 nM | 1000 to 10000 nM
6 | COc1cc2c(N(C)CC3CCNCC3)cc(-c3ccccc3)nc2cc1OCCCN1CCCC1 [Compound 1-23, 6-methoxy-N-methyl-2-phenyl-N-(4-piperidylmethyl)-7-(3-pyrrolidin-1-ylpropoxy)quinolin-4-amine] | 100 to 500 nM | 500 to 1000 nM
7 | COc1cc2c(N(C)CC3CCN(C)CC3)cc(-c3cc(C)oc3C)nc2cc1OCCCN1CCCC1 [Compound 1-19] | 500 to 1000 nM | 500 to 1000 nM
8 | COc1cc2c(OCC3CCN(C)CC3)cc(-c3ccc(C)o3)nc2cc1OCCCN1CCCC1 [Compound 3-02] | 1000 to 10000 nM | 500 to 1000 nM
9 | COc1cc2c(N(C)C3CC4(CCN(C)CC4)C3)cc(-c3ccc(C)o3)nc2cc1OCC1CCN(C)CC1 [Compound 1-08, 6-methoxy-N-methyl-N-(7-methyl-7-azaspiro[3.5]nonan-2-yl)-2-(5-methyl-2-furyl)-7-[(1-methyl-4-piperidyl)methoxy]quinolin-4-amine] | > 10000 nM | 1000 to 10000 nM
10 | COc1cc2c(N(C)C3CCN(C)CC3)cc(-c3ccc(C)[nH]3)nc2cc1OCCCN1CCCC1 [Compound 1-07] | < 100 nM | 500 to 1000 nM
11 | COc1cc2c(OC3CCN(C)CC3)cc(-c3ccc(C)o3)nc2cc1OC1CC2(C1)CN(C)C2 [Compound 3-06, 6-methoxy-7-[(2-methyl-2-azaspiro[3.3]heptan-6-yl)oxy]-2-(5-methyl-2-furyl)-4-[(1-methyl-4-piperidyl)oxy]quinoline] | > 10000 nM | 1000 to 10000 nM
12 | COc1cc2c(N(C)C3CCN(C)CC3)cc(-c3cc(C)oc3C)nc2cc1OCCCN1CCCC1 [Compound 1-05] | 1000 to 10000 nM | 1000 to 10000 nM
13 | COc1cc2c(N(C)CC3CCN(C)CC3)cc(-c3ccc(C)o3)nc2cc1OCCCN1CCC(F)C1 (stereo not drawn) [Compound 1-20] | > 10000 nM | 1000 to 10000 nM
14 | COc1cc2c(N(C)CC3CCN(C)CC3)cc(C3CCCCC3)nc2cc1OCCCN1CCCC1 [Compound 1-21, 2-cyclohexyl-6-methoxy-N-methyl-N-[(1-methyl-4-piperidyl)methyl]-7-(3-pyrrolidin-1-ylpropoxy)quinolin-4-amine] | 100 to 500 nM | 1000 to 10000 nM
15 | COc1cc2c(N(C)C3CC4(CCN(C(C)C)CC4)C3)cc(-c3ccc(C)o3)nc2cc1OCCCN1CCCC1 [Compound 1-09] | 500 to 1000 nM | 500 to 1000 nM
16 | COc1cc2c(N(C)C)cc(-c3ccc(C)o3)nc2cc1OCCCN1CCCC1 [Compound 1-12] | 1000 to 10000 nM | 1000 to 10000 nM
17 | CNC1CCN(c2cc(-c3ccc4occc4c3)nc3cc(OCCCN4CCCC4)c(OC)cc23)CC1 [Compound 2-04] | > 10000 nM | 1000 to 10000 nM
18 | COc1cc2c(N(C)C3CC4(CCN(C(C)C)CC4)C3)cc(-c3ccc(C)o3)nc2cc1OC1CC2(C1)CN(C)C2 (stereo not drawn) [Compound 1-14] | > 10000 nM | 1000 to 10000 nM
19 | CNC1CCN(c2cc(-c3ccc(C)o3)nc3cc(OCCCN4CCCC4)c(OC)cc23)CC1 [Compound 2-01, 1-[6-methoxy-2-(5-methyl-2-furyl)-7-(3-pyrrolidin-1-ylpropoxy)-4-quinolyl]-N-methyl-piperidin-4-amine] | 1000 to 10000 nM | 500 to 1000 nM
20 | COc1cc2c(N(C)CC3CCN(C)CC3)cc(-c3ccc(C)[nH]3)nc2cc1OCCCN1CCCC1 [Compound 1-06] | 100 to 500 nM | 100 to 500 nM
21 | CCc1ccc(-c2cc(N(C)CC3CCN(C)CC3)c3cc(OC)c(OCC4CCN(C)CC4)cc3n2)o1 [Compound 1-16] | > 10000 nM | 1000 to 10000 nM
22 | COc1cc2c(OCC3CCN(C)CC3)cc(-c3ccc(C)[nH]3)nc2cc1OCCCN1CCCC1 [Compound 3-03] | 100 to 500 nM | 500 to 1000 nM
23 | COc1cc2c(N3CCC(C(C)(C)N)CC3)cc(-c3ccc(C)o3)nc2cc1OCCCN1CCCC1 [Compound 2-07] | 500 to 1000 nM | 1000 to 10000 nM
24 | COc1cc2c(N(C)C)cc(-c3ccc(C)[nH]3)nc2cc1OCCCN1CCCC1 [Compound 1-11] | 100 to 500 nM | 1000 to 10000 nM
25 | CCc1ccc(-c2cc(N(C)CC3CCN(C)CC3)c3cc(OC)c(OC4CC5(C4)CN(C)C5)cc3n2)o1 [Compound 1-10] | > 10000 nM | 1000 to 10000 nM
26 | CNCC1CCN(c2cc(C3CCCCC3)nc3cc(OCCCN4CCCC4)c(OC)cc23)CC1 [Compound 2-08, 1-[1-[2-cyclohexyl-6-methoxy-7-(3-pyrrolidin-1-ylpropoxy)-4-quinolyl]-4-piperidyl]-N-methyl-methanamine] | < 100 nM | 1000 to 10000 nM
27 | COc1cc2c(N(C)C3CCC4(CC3)CN(C)C4)cc(-c3ccc(C)o3)nc2cc1OCCCN1CCCC1 [Compound 1-18] | 1000 to 10000 nM | 1000 to 10000 nM
28 | COc1cc2c(N(C)C3CC4(CCN(C(C)C)CC4)C3)cc(-c3ccc(C)o3)nc2cc1OC1CC2(C1)CN(CC#N)C2 (stereo not drawn) [Compound 1-15] | > 10000 nM | 1000 to 10000 nM
29 | COc1cc2c(N3CCC(N(C)C)CC3)cc(-c3ccc(C)[nH]3)nc2cc1OCCCN1CCCC1 [Compound 2-05, 1-[6-methoxy-2-(5-methyl-1H-pyrrol-2-yl)-7-(3-pyrrolidin-1-ylpropoxy)-4-quinolyl]-N,N-dimethyl-piperidin-4-amine] | 100 to 500 nM | 100 to 500 nM
30 | COc1cc2c(C3CCN(C)CC3)cc(-c3ccc(C)o3)nc2cc1OCCCN1CCCC1 [Compound 4-02, 6-methoxy-2-(5-methyl-2-furyl)-4-(1-methyl-4-piperidyl)-7-(3-pyrrolidin-1-ylpropoxy)quinoline] | 1000 to 10000 nM | 1000 to 10000 nM
